{"source": "ChEMBL document CHEMBL5696442", "about": "“Discovery of type II inhibitors of TGFβ-activated kinase 1 (TAK1) and mitogen-activated protein kinase kinase kinase kinase 2 (MAP4K2)” (J Med Chem, 2015)", "key": {"[1]": {"target": "Serine/threonine-protein kinase ATR (Homo sapiens) (UniProt Q13535)", "sequence (Q13535 whole entry, looked up)": "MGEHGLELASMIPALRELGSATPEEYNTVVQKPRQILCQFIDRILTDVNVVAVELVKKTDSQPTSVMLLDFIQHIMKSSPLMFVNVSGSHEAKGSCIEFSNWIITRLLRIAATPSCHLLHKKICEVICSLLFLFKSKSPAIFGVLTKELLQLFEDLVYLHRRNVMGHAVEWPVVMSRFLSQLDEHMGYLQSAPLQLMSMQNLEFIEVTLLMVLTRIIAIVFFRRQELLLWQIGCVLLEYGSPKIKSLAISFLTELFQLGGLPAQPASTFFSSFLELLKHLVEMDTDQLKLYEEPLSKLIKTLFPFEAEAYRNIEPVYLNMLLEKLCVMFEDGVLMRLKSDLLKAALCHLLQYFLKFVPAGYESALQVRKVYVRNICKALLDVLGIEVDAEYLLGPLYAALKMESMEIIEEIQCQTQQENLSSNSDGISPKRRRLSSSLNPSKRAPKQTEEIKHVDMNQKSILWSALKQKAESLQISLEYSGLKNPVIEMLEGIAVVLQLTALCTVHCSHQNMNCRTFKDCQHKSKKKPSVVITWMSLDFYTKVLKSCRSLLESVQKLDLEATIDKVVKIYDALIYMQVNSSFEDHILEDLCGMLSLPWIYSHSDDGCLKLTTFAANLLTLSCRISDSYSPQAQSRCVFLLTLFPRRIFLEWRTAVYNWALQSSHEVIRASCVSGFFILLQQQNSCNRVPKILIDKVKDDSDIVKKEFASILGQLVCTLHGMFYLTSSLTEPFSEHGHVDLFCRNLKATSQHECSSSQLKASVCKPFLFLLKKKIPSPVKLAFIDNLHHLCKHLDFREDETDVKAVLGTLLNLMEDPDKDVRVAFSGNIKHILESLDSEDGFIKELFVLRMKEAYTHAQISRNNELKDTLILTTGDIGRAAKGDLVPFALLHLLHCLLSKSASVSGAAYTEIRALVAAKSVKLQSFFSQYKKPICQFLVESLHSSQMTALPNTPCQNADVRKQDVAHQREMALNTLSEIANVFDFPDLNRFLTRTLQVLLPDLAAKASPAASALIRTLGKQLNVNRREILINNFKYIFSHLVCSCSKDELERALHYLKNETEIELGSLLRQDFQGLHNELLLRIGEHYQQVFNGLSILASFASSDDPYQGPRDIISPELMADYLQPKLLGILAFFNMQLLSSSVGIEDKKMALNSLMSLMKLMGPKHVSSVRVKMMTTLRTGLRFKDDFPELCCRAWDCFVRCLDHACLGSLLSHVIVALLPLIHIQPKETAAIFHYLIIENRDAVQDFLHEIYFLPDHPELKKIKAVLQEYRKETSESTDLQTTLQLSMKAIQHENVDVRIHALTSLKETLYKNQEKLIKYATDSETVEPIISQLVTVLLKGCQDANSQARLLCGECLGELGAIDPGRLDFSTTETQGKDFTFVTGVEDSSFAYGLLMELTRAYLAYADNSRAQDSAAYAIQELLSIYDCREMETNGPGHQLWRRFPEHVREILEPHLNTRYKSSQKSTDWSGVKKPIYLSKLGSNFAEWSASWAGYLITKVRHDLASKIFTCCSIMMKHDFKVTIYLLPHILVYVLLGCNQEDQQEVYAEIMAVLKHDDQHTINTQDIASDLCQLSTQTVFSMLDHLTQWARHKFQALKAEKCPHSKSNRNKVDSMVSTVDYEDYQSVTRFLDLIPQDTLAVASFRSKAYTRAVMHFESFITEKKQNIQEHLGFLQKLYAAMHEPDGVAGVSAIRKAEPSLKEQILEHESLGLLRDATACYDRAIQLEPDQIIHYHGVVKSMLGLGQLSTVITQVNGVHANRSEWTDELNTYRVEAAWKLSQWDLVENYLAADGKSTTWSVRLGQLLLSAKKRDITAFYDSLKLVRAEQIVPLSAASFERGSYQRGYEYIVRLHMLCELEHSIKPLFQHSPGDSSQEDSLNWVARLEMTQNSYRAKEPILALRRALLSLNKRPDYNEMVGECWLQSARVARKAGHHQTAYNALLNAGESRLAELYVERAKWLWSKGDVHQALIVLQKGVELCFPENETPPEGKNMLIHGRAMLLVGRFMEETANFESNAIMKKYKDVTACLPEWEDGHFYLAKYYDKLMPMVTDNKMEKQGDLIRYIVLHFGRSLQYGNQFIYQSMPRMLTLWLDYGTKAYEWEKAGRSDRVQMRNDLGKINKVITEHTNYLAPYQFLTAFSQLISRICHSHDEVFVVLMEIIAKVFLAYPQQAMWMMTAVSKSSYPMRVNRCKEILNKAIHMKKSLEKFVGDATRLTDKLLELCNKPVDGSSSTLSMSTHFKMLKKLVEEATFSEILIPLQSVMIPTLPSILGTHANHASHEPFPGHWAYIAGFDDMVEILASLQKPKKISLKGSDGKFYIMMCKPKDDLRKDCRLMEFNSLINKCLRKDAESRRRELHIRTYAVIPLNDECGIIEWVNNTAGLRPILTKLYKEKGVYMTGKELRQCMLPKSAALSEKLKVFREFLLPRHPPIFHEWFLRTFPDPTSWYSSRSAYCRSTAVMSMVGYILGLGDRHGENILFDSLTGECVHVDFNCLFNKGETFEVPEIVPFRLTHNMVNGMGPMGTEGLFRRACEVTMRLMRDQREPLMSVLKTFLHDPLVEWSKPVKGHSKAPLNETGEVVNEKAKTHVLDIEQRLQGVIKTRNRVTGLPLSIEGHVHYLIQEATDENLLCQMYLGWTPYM", "assay": "Inhibition of ATR in human Huh-7 cell lysate at 1 uM by KiNativ Profiling analysis relative to control", "assay_type": "subcellular"}, "[2]": {"target": "T1, Serine/threonine-protein kinase LATS2 (Homo sapiens) (UniProt Q9NRM7)", "T1 sequence (whole entry)": "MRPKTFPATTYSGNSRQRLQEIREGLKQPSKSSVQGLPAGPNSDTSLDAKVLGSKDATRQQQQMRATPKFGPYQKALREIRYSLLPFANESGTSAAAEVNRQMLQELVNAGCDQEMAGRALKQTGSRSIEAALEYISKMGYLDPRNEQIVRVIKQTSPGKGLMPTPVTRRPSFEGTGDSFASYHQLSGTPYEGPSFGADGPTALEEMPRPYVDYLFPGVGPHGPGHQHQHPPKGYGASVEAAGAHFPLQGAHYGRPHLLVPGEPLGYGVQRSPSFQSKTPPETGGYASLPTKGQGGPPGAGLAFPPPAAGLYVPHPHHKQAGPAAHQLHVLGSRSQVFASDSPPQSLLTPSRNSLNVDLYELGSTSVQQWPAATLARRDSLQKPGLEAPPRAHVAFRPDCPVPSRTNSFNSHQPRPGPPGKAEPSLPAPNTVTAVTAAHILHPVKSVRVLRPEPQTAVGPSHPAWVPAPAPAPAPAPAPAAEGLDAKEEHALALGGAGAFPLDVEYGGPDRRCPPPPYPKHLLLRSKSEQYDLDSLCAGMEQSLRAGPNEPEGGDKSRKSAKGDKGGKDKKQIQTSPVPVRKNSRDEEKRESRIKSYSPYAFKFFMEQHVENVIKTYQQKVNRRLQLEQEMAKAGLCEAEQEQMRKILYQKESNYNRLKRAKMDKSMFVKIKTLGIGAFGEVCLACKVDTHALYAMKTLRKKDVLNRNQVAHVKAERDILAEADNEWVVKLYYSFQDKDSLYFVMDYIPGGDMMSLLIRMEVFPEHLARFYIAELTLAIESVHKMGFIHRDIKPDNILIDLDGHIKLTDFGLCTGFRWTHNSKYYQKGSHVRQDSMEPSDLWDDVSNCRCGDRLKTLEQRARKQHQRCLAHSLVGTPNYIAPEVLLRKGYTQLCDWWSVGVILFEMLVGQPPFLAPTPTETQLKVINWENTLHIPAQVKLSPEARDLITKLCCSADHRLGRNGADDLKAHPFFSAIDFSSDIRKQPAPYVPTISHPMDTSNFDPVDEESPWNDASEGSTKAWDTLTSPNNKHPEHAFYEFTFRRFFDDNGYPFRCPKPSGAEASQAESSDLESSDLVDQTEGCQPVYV", "assay": "Inhibition of LATS2 Lys1 labeling site in human Huh-7 cell lysate at 1 uM by KiNativ Profiling analysis relative to control", "assay_type": "subcellular"}, "[3]": {"target": "Dual specificity mitogen-activated protein kinase kinase 1 (Homo sapiens) (UniProt Q02750)", "assay": "Inhibition of MAP2K1 Lys2 labeling site harbouring DVKPSNILVNSR in human Huh-7 cell lysate at 1 uM by KiNativ Profiling analysis relative to control", "assay_type": "subcellular"}, "[4]": {"target": "Serine/threonine-protein kinase 26 (Homo sapiens) (UniProt Q9P289)", "sequence (Q9P289 2-416 limits assumed)": "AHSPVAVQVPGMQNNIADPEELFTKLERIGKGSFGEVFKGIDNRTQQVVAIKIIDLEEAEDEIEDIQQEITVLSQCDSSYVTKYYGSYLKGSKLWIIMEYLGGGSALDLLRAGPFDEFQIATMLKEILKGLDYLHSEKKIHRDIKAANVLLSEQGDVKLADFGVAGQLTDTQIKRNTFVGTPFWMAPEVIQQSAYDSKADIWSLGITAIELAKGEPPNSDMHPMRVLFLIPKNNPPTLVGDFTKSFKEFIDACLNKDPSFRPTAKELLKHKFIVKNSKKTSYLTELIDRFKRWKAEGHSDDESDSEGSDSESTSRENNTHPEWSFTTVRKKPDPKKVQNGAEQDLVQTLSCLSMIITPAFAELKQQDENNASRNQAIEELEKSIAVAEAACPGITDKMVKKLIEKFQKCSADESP", "assay": "Inhibition of MST4 Lys2 labeling site in human Huh-7 cell lysate at 1 uM by KiNativ Profiling analysis relative to control", "assay_type": "subcellular"}, "[5]": {"target": "Calcium/calmodulin-dependent protein kinase type II subunit gamma (Homo sapiens) (UniProt Q13555)", "sequence (Q13555 whole entry)": "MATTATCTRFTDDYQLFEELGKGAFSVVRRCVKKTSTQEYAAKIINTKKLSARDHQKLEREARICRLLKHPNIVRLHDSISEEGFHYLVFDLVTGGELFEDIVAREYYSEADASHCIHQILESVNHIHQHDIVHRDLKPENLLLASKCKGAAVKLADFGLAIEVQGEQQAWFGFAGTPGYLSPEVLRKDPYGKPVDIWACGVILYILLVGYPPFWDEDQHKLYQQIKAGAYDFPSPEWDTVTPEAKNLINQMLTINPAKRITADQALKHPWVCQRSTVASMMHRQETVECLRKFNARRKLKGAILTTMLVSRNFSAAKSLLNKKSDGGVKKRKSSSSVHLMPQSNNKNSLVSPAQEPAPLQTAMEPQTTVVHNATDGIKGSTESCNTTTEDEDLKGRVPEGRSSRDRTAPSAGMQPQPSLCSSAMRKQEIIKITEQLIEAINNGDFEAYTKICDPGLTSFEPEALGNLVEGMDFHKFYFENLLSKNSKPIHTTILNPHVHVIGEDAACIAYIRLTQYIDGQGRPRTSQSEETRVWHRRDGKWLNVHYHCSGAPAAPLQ", "assay": "Inhibition of CaMK2g Lys1 labeling site harbouring TSTQEYAAKIINTK in human Huh-7 cells at 1 uM by KiNativ Profiling analysis relative to control", "assay_type": "cell-based"}, "[6]": {"target": "RAC-alpha serine/threonine-protein kinase (Homo sapiens) (UniProt P31749)", "sequence (P31749 whole entry)": "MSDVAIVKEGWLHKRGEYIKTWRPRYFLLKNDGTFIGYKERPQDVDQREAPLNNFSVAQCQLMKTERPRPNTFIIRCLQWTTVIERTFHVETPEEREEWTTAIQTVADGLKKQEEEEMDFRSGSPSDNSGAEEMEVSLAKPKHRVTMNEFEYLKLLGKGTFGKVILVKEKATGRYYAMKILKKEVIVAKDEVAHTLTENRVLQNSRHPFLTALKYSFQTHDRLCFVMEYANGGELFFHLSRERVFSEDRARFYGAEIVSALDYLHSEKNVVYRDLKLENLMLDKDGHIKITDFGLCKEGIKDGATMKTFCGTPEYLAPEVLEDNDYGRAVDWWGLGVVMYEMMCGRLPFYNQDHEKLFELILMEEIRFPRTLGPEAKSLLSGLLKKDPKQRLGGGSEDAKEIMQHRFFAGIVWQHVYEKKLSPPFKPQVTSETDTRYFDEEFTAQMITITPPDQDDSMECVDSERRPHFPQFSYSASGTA", "assay": "Inhibition of AKT1 (unknown origin) at 1 uM by Ambit Kinomescan binding assay relative to control"}, "[7]": {"target": "Membrane-associated tyrosine- and threonine-specific cdc2-inhibitory kinase (Homo sapiens) (UniProt Q99640)", "sequence (Q99640 whole entry)": "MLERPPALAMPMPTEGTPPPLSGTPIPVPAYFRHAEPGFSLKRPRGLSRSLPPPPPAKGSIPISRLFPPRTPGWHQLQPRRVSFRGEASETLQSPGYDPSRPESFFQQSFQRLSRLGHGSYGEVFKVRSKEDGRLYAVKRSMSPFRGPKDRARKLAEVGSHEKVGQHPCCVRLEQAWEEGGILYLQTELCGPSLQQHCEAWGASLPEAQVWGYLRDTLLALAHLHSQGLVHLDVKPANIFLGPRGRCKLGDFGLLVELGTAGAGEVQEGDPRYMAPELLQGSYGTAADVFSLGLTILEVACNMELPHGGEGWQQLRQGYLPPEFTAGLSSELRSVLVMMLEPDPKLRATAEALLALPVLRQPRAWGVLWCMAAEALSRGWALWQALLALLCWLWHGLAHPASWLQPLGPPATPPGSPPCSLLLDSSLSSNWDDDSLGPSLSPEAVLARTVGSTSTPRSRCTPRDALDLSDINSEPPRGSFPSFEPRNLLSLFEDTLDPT", "assay": "Inhibition of PKMYT1 (unknown origin) at 1 uM by Ambit Kinomescan binding assay relative to control"}, "[8]": {"target": "Phosphatidylinositol 4,5-bisphosphate 3-kinase catalytic subunit alpha isoform (Homo sapiens) (UniProt P42336)", "assay": "Inhibition of PIK3CA ATP labeling site in human A-375 cells at 5 uM by KiNativ Profiling analysis relative to control", "assay_type": "cell-based"}, "[9]": {"target": "Mitogen-activated protein kinase kinase kinase 12 (Homo sapiens) (UniProt Q12852)", "assay": "Inhibition of DLK Lys2 labeling site harbouring in human A-375 cells at 0.5 uM by KiNativ Profiling analysis relative to control"}, "[10]": {"tested_on": "Mast/stem cell growth factor receptor Kit (Homo sapiens), P10721 [D816V]", "assay": "Inhibition of KIT D816V mutant (unknown origin) at 1 uM by Ambit Kinomescan binding assay relative to control; values are per cent of control"}, "[11]": {"target": "T2, Inhibitor of nuclear factor kappa-B kinase subunit epsilon (Homo sapiens) (UniProt Q14164)", "T2 sequence (whole entry)": "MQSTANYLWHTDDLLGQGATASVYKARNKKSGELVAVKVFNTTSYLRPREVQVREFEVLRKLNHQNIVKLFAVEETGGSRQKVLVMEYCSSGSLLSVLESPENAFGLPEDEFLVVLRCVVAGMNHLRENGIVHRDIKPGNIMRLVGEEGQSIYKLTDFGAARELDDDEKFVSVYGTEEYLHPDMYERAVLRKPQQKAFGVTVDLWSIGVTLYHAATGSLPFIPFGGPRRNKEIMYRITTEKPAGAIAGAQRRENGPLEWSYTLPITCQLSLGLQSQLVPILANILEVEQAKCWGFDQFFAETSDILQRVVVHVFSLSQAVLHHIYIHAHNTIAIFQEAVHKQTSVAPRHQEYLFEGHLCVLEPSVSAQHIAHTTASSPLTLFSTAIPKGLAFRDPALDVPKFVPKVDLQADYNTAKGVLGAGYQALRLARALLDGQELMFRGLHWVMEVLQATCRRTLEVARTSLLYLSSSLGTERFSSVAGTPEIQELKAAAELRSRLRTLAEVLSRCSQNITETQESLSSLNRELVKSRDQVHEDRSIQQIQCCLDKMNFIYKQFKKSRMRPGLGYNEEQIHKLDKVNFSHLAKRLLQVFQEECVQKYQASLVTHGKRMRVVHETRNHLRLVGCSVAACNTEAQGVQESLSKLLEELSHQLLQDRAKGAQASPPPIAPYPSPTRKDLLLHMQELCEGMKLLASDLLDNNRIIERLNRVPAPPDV", "assay": "Inhibition of IKKe Lys1 labeling site in human A-375 cells at 5 uM by KiNativ Profiling analysis relative to control", "assay_type": "cell-based"}, "[12]": {"target": "Serine/threonine-protein kinase 38-like (Homo sapiens) (UniProt Q9Y2H1)", "sequence (Q9Y2H1 2-464 limits assumed)": "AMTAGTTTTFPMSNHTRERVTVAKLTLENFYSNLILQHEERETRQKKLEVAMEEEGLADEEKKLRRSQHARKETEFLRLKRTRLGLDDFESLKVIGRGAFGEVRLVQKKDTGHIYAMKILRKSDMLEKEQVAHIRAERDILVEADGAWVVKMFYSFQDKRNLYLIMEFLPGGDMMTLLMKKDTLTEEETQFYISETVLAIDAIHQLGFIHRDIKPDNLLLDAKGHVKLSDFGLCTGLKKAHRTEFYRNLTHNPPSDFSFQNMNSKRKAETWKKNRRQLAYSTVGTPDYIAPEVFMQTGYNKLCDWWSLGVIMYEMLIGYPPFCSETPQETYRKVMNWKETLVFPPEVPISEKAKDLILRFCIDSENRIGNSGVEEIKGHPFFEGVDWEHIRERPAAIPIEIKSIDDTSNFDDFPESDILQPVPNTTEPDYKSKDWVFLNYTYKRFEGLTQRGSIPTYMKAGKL", "assay": "Inhibition of NDR2 Lys1 labeling site harbouring DTGHIYAMKILR in human A-375 cells at 0.5 uM by KiNativ Profiling analysis relative to control", "assay_type": "cell-based"}, "[13]": {"target": "Tyrosine-protein kinase receptor Tie-1 (Homo sapiens) (UniProt P35590)", "assay": "Inhibition of TIE1 (unknown origin) at 10 uM by Ambit Kinomescan binding assay relative to control; values are per cent of control"}}}
{"compound": "CNc1cc(Oc2cc(C(=O)Nc3cc(N4CCN(C)CC4)cc(C(F)(F)F)c3)ccc2C)ncn1", "values": [{"measurement": "inhibition", "setting": "[1]", "result": 22.6, "unit": "%"}, {"measurement": "inhibition", "setting": "[2]", "result": -3.8, "unit": "%"}, {"measurement": "inhibition", "setting": "[3]", "result": 15.6, "unit": "%"}, {"measurement": "inhibition", "setting": "[4]", "result": -0.3, "unit": "%"}, {"measurement": "inhibition", "setting": "[5]", "result": 27.1, "unit": "%"}]}
{"compound": "CCN1CCN(Cc2ccc(NC(=O)c3ccc(C)c(/C=C/c4cnc5[nH]ccc5c4OC)c3)cc2C(F)(F)F)CC1", "values": [{"measurement": "inhibition", "setting": "[6]", "result": 100, "unit": "%"}, {"measurement": "inhibition", "setting": "[7]", "result": 68, "unit": "%"}, {"measurement": "inhibition", "setting": "[8]", "result": 56.9, "unit": "%"}, {"measurement": "inhibition", "setting": "[9]", "result": 0.8, "unit": "%"}, {"measurement": "residual activity", "setting": "[10]", "result": 8.8, "unit": "%"}]}
{"compound": "CCN1CCN(Cc2ccc(NC(=O)c3ccc(C)c(Oc4ccnc5[nH]ccc45)c3)cc2C(F)(F)F)CC1", "values": [{"measurement": "inhibition", "setting": "[11]", "result": 0.8, "unit": "%"}, {"measurement": "inhibition", "setting": "[12]", "result": 16.9, "unit": "%"}, {"measurement": "residual activity", "setting": "[13]", "result": 0.95, "unit": "%"}]}
